Usually IC50 stands for the concentration at which inhibition is half-maximal.

Each structure is given as a SMILES string.

T1 sequence (P30550 whole entry): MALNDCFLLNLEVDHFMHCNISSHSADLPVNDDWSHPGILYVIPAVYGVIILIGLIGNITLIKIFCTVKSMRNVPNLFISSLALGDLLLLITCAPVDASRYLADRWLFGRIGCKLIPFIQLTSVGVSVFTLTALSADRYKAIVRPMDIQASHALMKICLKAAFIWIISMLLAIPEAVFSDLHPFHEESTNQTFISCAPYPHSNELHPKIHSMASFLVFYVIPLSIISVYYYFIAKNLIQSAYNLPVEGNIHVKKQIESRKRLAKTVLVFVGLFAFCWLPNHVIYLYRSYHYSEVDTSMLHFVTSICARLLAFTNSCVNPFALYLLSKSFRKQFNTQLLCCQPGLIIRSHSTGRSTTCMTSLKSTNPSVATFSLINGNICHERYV

One test addresses T1, human GRP receptor (BB2) (Homo sapiens, UniProt P30550).
T1 construct: expressed in transfected cells
Briefly: BB2 binding assay ([125I][Tyr4]bombesin, CHO-K1 cell membranes). To be noted: Table 3; N-acyl derivatives. The method, then:
In the following experiments, measurement of BB1 and BB2 binding was as follows. […] The final pellet was resuspended in assay buffer to a final cell concentration of 1.5 × 10^5/mL. […] Nonspecific binding was defined by 1µM bombesin. […] Radioactivity bound was determined using a gamma counter.
All competition data was analysed using nonlinear regression utilizing iterative curve-plotting procedures in Prism® (GraphPad Software Inc., San Diego, USA).
`CN(C)c1ccccc1C(=O)N[C@@](C)(Cc1c[nH]c2ccccc12)C(=O)NCC1(c2ccccn2)CCCCC1` [Example 48, C-Dimethylamino-N-{(S)-2-(1H-indol-3-yl)-1-methyl-1-[(1-pyridin-2-yl-cyclohexyl-methyl)-carbamoyl]-ethyl}-benzamide] came in with an IC50 of more than 10 µM.

Molecule `C[C@@](Cc1c[nH]c2ccccc12)(NC(=O)c1ccco1)C(=O)NCC1(c2ccccn2)CCCCC1` [Example 60, Furan-2-carboxylic acid {(S)-2-(1H-indol-3-yl)-1-methyl-1-[(1-pyridin-2-yl-cyclohexylmethyl)-carbamoyl]-ethyl}-amide] gave a concentration for half-maximal inhibition (IC50) of more than 10 µM.

The test is the same for the next values; noted with them: Table 5; N-terminal urethane derivatives.
The molecule `C[C@@](Cc1c[nH]c2ccccc12)(NC(=O)OCc1ccc(Cl)cc1Cl)C(=O)NCC1(c2ccccn2)CCCCC1` [Example 104, {(S)-2-(1H-Indol-3-yl)-1-methyl-1-[(1-pyridin-2-yl-cyclohexylmethyl)-carbamoyl]-ethyl}-carbamic acid 2,4-dichloro-benzyl ester] displayed an IC50 of more than 10 µM.

The same test, now with this note: Table 7; N-terminal sulfonamide derivatives.
On to `C[C@@](Cc1c[nH]c2ccccc12)(NS(=O)(=O)c1ccc(Cl)c(Cl)c1)C(=O)NCC1(c2ccccn2)CCCCC1` [Example 125, (S)-2-(3,4-Dichloro-benzenesulfonylamino)-3-(1H-indol-3-yl)-2-methyl-N-(1-pyridin-2-yl-cyclohexylmethyl)-propionamide], for which the IC50 was more than 10 µM. For the molecule `C[C@@](Cc1c[nH]c2ccccc12)(NS(=O)(=O)c1cnc(Cl)c(Br)c1)C(=O)NCC1(c2ccccn2)CCCCC1` [Example 161, (S)-2-(5-Bromo-6-chloro-pyridine-3-sulfonylamino)-3-(1H-indol-3-yl)-2-methyl-N-(1-pyridin-2-yl-cyclohexylmethyl)-propionamide], the IC50 was more than 10 µM. The same measure, in the same setting: next, `Cc1noc(C)c1S(=O)(=O)N[C@@](C)(Cc1c[nH]c2ccccc12)C(=O)NCC1(c2ccccn2)CCCCC1` [Example 136, (S)-2-(3,5-Dimethyl-isoxazole-4-sulfonylamino)-3-(1H-indol-3-yl)-2-methyl-N-(1-pyridin-2-yl-cyclohexylmethyl)-propionamide]: more than 10 µM; `Cn1cnc(S(=O)(=O)N[C@@](C)(Cc2c[nH]c3ccccc23)C(=O)NCC2(c3ccccn3)CCCCC2)c1` [Example 138, (S)-3-(1H-Indol-3-yl)-2-methyl-2-(1-methyl-1H-imidazole-4-sulfonylamino)-N-(1-pyridin-2-yl-cyclohexylmethyl)-propionamide]: more than 10 µM; `C[C@@](Cc1c[nH]c2ccccc12)(NS(=O)(=O)c1cccc2cccc([N+](=O)[O-])c12)C(=O)NCC1(c2ccccn2)CCCCC1` [Example 146, (S)-3-(1H-Indol-3-yl)-2-methyl-2-(8-nitro-naphthalene-1-sulfonylamino)-N-(1-pyridin-2-yl-cyclohexylmethyl)-propionamide]: more than 10 µM. Same read-out and setting: next, `COc1cc(C)ccc1S(=O)(=O)N[C@@](C)(Cc1c[nH]c2ccccc12)C(=O)NCC1(c2ccccn2)CCCCC1` [Example 159, (S)-3-(1H-Indol-3-yl)-2-(2-methoxy-4-methyl-benzenesulfonylamino)-2-methyl-N-(1-pyridin-2-yl-cyclohexylmethyl)-propionamide]: more than 10 µM. Still for that read-out and setting: next, `CCCCc1ccc(S(=O)(=O)N[C@@](C)(Cc2c[nH]c3ccccc23)C(=O)NCC2(c3ccccn3)CCCCC2)cc1` [Example 168, (S)-2-(4-Butyl-benzenesulfonylamino)-3-(1H-indol-3-yl)-2-methyl-N-(1-pyridin-2-yl-cyclohexylmethyl)-propionamide]: more than 10 µM; `COc1ccc(S(=O)(=O)N[C@@](C)(Cc2c[nH]c3ccccc23)C(=O)NCC2(c3ccccn3)CCCCC2)cc1OC` [Example 132, (S)-2-(3,4-Dimethoxy-benzenesulfonylamino)-3-(1H-indol-3-yl)-2-methyl-N-(1-pyridin-2-yl-cyclohexylmethyl)-propionamide]: more than 10 µM. As to `C[C@@](Cc1c[nH]c2ccccc12)(NS(=O)(=O)c1cccc(C#N)c1)C(=O)NCC1(c2ccccn2)CCCCC1` [Example 143, (S)-2-(3-Cyano-benzenesulfonylamino)-3-(1H-indol-3-yl)-2-methyl-N-(1-pyridin-2-yl-cyclohexylmethyl)-propionamide], the IC50 was more than 10 µM. For `Cc1nn(C)c(Cl)c1S(=O)(=O)N[C@@](C)(Cc1c[nH]c2ccccc12)C(=O)NCC1(c2ccccn2)CCCCC1` [Example 135, (S)-2-(5-Chloro-1,3-dimethyl-1H-pyrazole-4-sulfonylamino)-3-(1H-indol-3-yl)-2-methyl-N-(1-pyridin-2-yl-cyclohexylmethyl)-propionamide], the IC50 was more than 10 µM.

`C[C@@](Cc1c[nH]c2ccccc12)(NS(=O)(=O)c1ccc(C#N)cc1)C(=O)NCC1(c2ccccn2)CCCCC1` [Example 133, (S)-2-(4-Cyano-benzenesulfonylamino)-3-(1H-indol-3-yl)-2-methyl-N-(1-pyridin-2-yl-cyclohexylmethyl)-propionamide] returned an IC50 of more than 10 µM. As for `C[C@@](Cc1c[nH]c2ccccc12)(NS(=O)(=O)c1cccs1)C(=O)NCC1(c2ccccn2)CCCCC1` [Example 119, (S)-3-(1H-Indol-3-yl)-2-methyl-N-(1-pyridin-2-yl-cyclohexylmethyl)-2-(thiophene-2-sulfonylamino)-propionamide], the “BB2 IC50” value is given as “Ia”. The molecule `C[C@@](Cc1c[nH]c2ccccc12)(NS(=O)(=O)c1ccc(Cl)cc1[N+](=O)[O-])C(=O)NCC1(c2ccccn2)CCCCC1` [Example 149, (S)-2-(4-Chloro-2-nitro-benzenesulfonylamino)-3-(1H-indol-3-yl)-2-methyl-N-(1-pyridin-2-yl-cyclohexylmethyl)-propionamide] returned an IC50 of more than 10 µM. Same read-out and setting: next, `C[C@@](Cc1c[nH]c2ccccc12)(NS(=O)(=O)c1ccc(-c2ccccn2)s1)C(=O)NCC1(c2ccccn2)CCCCC1` [Example 160, (S)-3-(1H-Indol-3-yl)-2-methyl-N-(1-pyridin-2-yl-cyclohexylmethyl)-2-(5-pyridin-2-yl-thiophene-2-sulfonylamino)-propionamide]: more than 10 µM. `C[C@@](Cc1c[nH]c2ccccc12)(NS(=O)(=O)c1ccc(Cl)c(C(F)(F)F)c1)C(=O)NCC1(c2ccccn2)CCCCC1` [Example 166, (S)-2-(Chloro-trifluoromethyl-benzenesulfonylamino)-3-(1H-indol-3-yl)-2-methyl-N-(1-pyridin-2-yl-cyclohexylmethyl)-propionamide] displayed an IC50 of more than 10 µM. The same measure, in the same setting: next, `COC(=O)c1sccc1S(=O)(=O)N[C@@](C)(Cc1c[nH]c2ccccc12)C(=O)NCC1(c2ccccn2)CCCCC1` [Example 140, 3-{(S)-2-(1H-Indol-3-yl)-1-methyl-1-[(1-pyridin-2-yl-cyclohexylmethyl)-carbamoyl]-ethylsulfamoyl}-thiophene-2-carboxylic acid methyl ester]: more than 10 µM; `C[C@@](Cc1c[nH]c2ccccc12)(NS(=O)(=O)Cc1ccccc1[N+](=O)[O-])C(=O)NCC1(c2ccccn2)CCCCC1` [Example 142, (S)-3-(1H-Indol-3-yl)-2-methyl-2-(2-nitro-phenylmethanesulfonylamino)-N-(1-pyridin-2-yl-cyclohexylmethyl)-propionamide]: more than 10 µM. For `C[C@@](Cc1c[nH]c2ccccc12)(NS(=O)(=O)c1ccc(Cl)s1)C(=O)NCC1(c2ccccn2)CCCCC1` [Example 128, (S)-2-(5-Chloro-thiophene-2-sulfonylamino)-3-(1H-indol-3-yl)-2-methyl-N-(1-pyridin-2-yl-cyclohexylmethyl)-propionamide], the IC50 is more than 10 µM. On the same count and under the same terms, under `C[C@@](Cc1c[nH]c2ccccc12)(NS(=O)(=O)c1ccc(-c2ccon2)s1)C(=O)NCC1(c2ccccn2)CCCCC1` [Example 141, (S)-3-(1H-Indol-3-yl)-2-(5-isoxazol-3-yl-thiophene-2-sulfonylamino)-2-methyl-N-(1-pyridin-2-yl-cyclohexylmethyl)-propionamide] stands more than 10 µM. `C[C@@](Cc1c[nH]c2ccccc12)(NS(=O)(=O)c1cccc2nsnc12)C(=O)NCC1(c2ccccn2)CCCCC1` [Example 137, (S)-2-(Benzo[1,2,5]thiadiazole-4-sulfonylamino)-3-(1H-indol-3-yl)-2-methyl-N-(1-pyridin-2-yl-cyclohexylmethyl)-propionamide]: the IC50 is more than 10 µM. In turn, `CC(C)(C)c1ccc(S(=O)(=O)N[C@@](C)(Cc2c[nH]c3ccccc23)C(=O)NCC2(c3ccccn3)CCCCC2)cc1` [Example 164, (S)-2-(4-tert-Butyl-benzenesulfonylamino)-3-(1H-indol-3-yl)-2-methyl-N-(1-pyridin-2-yl-cyclohexylmethyl)-propionamide] registered an IC50 of more than 10 µM. As for `C[C@@](Cc1c[nH]c2ccccc12)(NS(=O)(=O)c1cc([N+](=O)[O-])ccc1Cl)C(=O)NCC1(c2ccccn2)CCCCC1` [Example 147, (S)-2-(2-Chloro-5-nitro-benzenesulfonylamino)-3-(1H-indol-3-yl)-2-methyl-N-(1-pyridin-2-yl-cyclohexylmethyl)-propionamide], the “BB2 IC50” value was “Ia”.

Consider `Cc1ccc(S(=O)(=O)N[C@@](C)(Cc2c[nH]c3ccccc23)C(=O)NCC2(c3ccccn3)CCCCC2)cc1` [Example 112, (S)-3-(1H-Indol-3-yl)-2-methyl-N-(1-pyridin-2-yl-cyclohexylmethyl)-2-(toluene-4-sulfonylamino)-propionamide], for which the IC50 was more than 10 µM. The molecule `C[C@@](Cc1c[nH]c2ccccc12)(NS(=O)(=O)c1ccc([N+](=O)[O-])cc1[N+](=O)[O-])C(=O)NCC1(c2ccccn2)CCCCC1` [Example 162, (S)-2-(2,4-Dinitro-benzenesulfonylamino)-3-(1H-indol-3-yl)-2-methyl-N-(1-pyridin-2-yl-cyclohexylmethyl)-propionamide] returned a 50% inhibitory concentration (IC50) of more than 10 µM.
